Assay results taken from article PMC6277767, “Broad and Region-Specific Impacts of the Synthetic Cannabinoid CP 55,940 in Adolescent and Adult Female Mouse Brains” (Frontiers in Molecular Neuroscience, 2018).

Test system: CD1 female mouse brain lipidome
Assay: Brain-region lipid levels (HPLC/MS/MS lipidomics) 2 h after single i.p. 3 mg/kg CP 55,940 vs vehicle
Assay type: in vivo
Design: N-arachidonoyl phenylalanine level, Mean / N-stearoyl tryptophan level, Mean / N-stearoyl proline level, Mean / N-stearoyl leucine level, Mean / N-stearoyl phenylalanine level, Mean / N-stearoyl serine level, Mean / N-stearoyl methionine level, Mean: unit: moles per gram
Details: thalamus, 3 mg/kg CP 55,940
Method: The Bloomington Institutional Animal Care and Use Committee of Indiana University reviewed and approved the animal procedures. Female mice from the CD1 strain were utilized to match our study examining THC’s effects on the brain lipidome ([Leishman et al., 2018]). Mice were given a single i.p. injection of either 3 mg/kg CP or 1:1:18 cremophor:ethanol:saline vehicle (please refer to the section “3 mg/kg CP Is Relevant for Synthetic Cannabinoid Abuse and Has Stronger Effects on the Female Mouse Brain Lipidome During Adolescence” for a justification of dose and use of female mice). Three different age groups were given injections: PND 35 and PND 50 adolescents, and adult mice (PND 113). At least eight mice in each age group received CP and at least eight received vehicle. Matching the THC study time course ([Leishman et al., 2018]), mice were sacrificed via rapid decapitation 2 h after injection. Brains were immediately removed and flash-frozen in liquid nitrogen, and then stored at -80°C until dissections were performed. Brains were dissected on an ice-cold dissection plate into the following regions: STR, HIPP, CER, THAL, CTX, HYP, MID, and STEM. These abbreviations for these brain areas will be used exclusively when discussing the results generated by these specific dissections. Each dissected area was immediately placed in liquid nitrogen and then stored at -80°C until used for lipid extraction.
Tissue extracts were performed as previously described ([Bradshaw et al., 2006]; [Stuart et al., 2013]; [Raboune et al., 2014]; [Leishman et al., 2016a],[b], [2017], [2018]). First, samples were shock frozen in liquid nitrogen, weighed, and transferred to a centrifuge tube. The mass of the largest sample was multiplied by 50 to determine how many milliliters of HPLC-grade methanol (Fisher, Fair Lawn, NJ, United States) to add. Then, samples were spiked with 500 pmol deuterium-labeled NAGly (d8NAGly; Cayman Chemical, Ann Arbor, MI, United States). Samples were placed on ice in darkness for 2 h then individually homogenized and centrifuged at 19,000 × g for 20 min at 20°C. Supernatants were diluted with HPLC water (purified in house) to make a solution of 75% water, 25% supernatant. Lipids were partially purified on C18 solid phase extraction columns (Agilent, Palo Alto, CA, United States). A series of four elutions with 1.5 mL of 60%, 75%, 85%, and 100% methanol were collected ([Stuart et al., 2013]; [Leishman et al., 2016a],[b], [2018]).
As previously described ([Bradshaw et al., 2006]; [Tan et al., 2006]; [Smoum et al., 2010]; [Stuart et al., 2013]; [Tortoriello et al., 2013]; [Raboune et al., 2014]; [Leishman et al., 2016a],[b], [2017], [2018]), samples were analyzed using an Applied Biosystems API 3000 triple quadrupole mass spectrometer with electrospray ionization (Foster City, CA, United States). Using an Agilent XDB-C18 reversed phase analytical column and optimized mobile phase gradients, 20 μL from each elution were chromatographed. Two Shimadzu 10ADvp pumps (Columbia, MD, United States) provided the pressure for gradient elution. Mobile phase A: 20% methanol, 80% water (v/v) and 1 mM ammonium acetate (Sigma, St. Louis, MO, United States). Mobile phase B: 100% methanol, 1 mM ammonium acetate. Every method run began with 0% mobile phase B, reached 100% mobile phase B flowing at 0.2 mL/min, and gradually returned to 0% mobile phase B.
This screening library will be referred to as the lipidome when discussing data from this study. HPLC/MS/MS data were analyzed using Analyst software (Applied Biosystems) ([Bradshaw et al., 2006]; [Tan et al., 2006]; [Stuart et al., 2013]; [Tortoriello et al., 2013]; [Raboune et al., 2014]; [Leishman et al., 2016a],[b], [2017], [2018]). Chromatograms (Supplementary Figure 3) were generated by determining the retention time of analytes from the analytical column with a [M-1] or [M+1] parent peak and a fragmentation peak corresponding to the programmed values. […]

CCCCCCC(C)(C)c1ccc([C@@H]2C[C@H](O)CC[C@H]2CCCO)c(O)c1 [CP 55,940]
N-oleoyl glycine Direction (relative to Veh) (PND 35): ↓ | N-oleoyl glycine Magnitude (x Veh level) (PND 35): 0.91 x Veh level | N-oleoyl leucine Direction (relative to Veh) (PND 35): ↑ | N-oleoyl leucine Magnitude (x Veh level) (PND 35): 1.27 x Veh level | N-oleoyl valine Direction (relative to Veh) (PND 35): ↑ | N-oleoyl valine Magnitude (x Veh level) (PND 35): 1.44 x Veh level | N-palmitoyl GABA Direction (relative to Veh) (PND 35): ↑ | N-palmitoyl GABA Magnitude (x Veh level) (PND 35): 1.21 x Veh level | N-palmitoyl leucine, Direction (relative to Veh) (PND 35): ↑ | N-palmitoyl leucine, Magnitude (x Veh level) (PND 35): 1.42 x Veh level | N-palmitoyl phenylalanine Direction (relative to Veh) (PND 35): ↑ | N-palmitoyl phenylalanine Magnitude (x Veh level) (PND 35): 1.35 x Veh level | N-palmitoyl tyrosine Magnitude (x Veh level) (PND 35): 1.34 x Veh level | N-palmitoyl tyrosine, Direction (relative to Veh) (PND 35): ↑ | N-palmitoyl valine Direction (relative to Veh) (PND 35): ↑ | N-palmitoyl valine Magnitude (x Veh level) (PND 35): 1.79 x Veh level | N-stearoyl serine Direction (relative to Veh) (PND 35): ↓ | N-stearoyl serine Magnitude (x Veh level) (PND 35): 0.83 x Veh level | N-stearoyl tyrosine Direction (relative to Veh) (PND 35): ↓ | N-stearoyl tyrosine Magnitude (x Veh level) (PND 35): 0.81 x Veh level | N-stearoyl valine Direction (relative to Veh) (PND 35): ↑ | N-stearoyl valine Magnitude (x Veh level) (PND 35): 1.26 x Veh level | PGE2 Direction (relative to Veh) (PND 35): ↑ | PGE2 Magnitude (x Veh level) (PND 35): 1.16 x Veh level | phosphoLEA Direction (relative to Veh) (PND 35): ↑ | phosphoLEA Magnitude (x Veh level) (PND 35): 1.24 x Veh level | 2-arachidonoyl glycerol level, Mean (PND 35 adolescent female mice): 3.59E-10 | 2-linoleoyl glycerol level, Mean (PND 35 adolescent female mice): 1.52E-10 | 2-oleoyl glycerol level, Mean (PND 35 adolescent female mice): 1.68E-09 | 2-palmitoyl glycerol level, Mean (PND 35 adolescent female mice): 5.34E-10 | 6-ketoPGF1α level, Mean (PND 35 adolescent female mice): 1.42E-11 | Arachidonic acid level, Mean (PND 35 adolescent female mice): 2.14E-09 | Linoleic acid level, Mean (PND 35 adolescent female mice): 5.7E-10 | N- stearoyl valine level, Mean (PND 35 adolescent female mice): 1.07E-12 | N-arachidonoyl GABA level, Mean (PND 35 adolescent female mice): 2.62E-11 | N-arachidonoyl alanine level, Mean (PND 35 adolescent female mice): 1.02E-11 | N-arachidonoyl dopamine level, Mean (PND 35 adolescent female mice): BDL | N-arachidonoyl ethanolamine level, Mean (PND 35 adolescent female mice): 2.8E-11 | N-arachidonoyl glycine level, Mean (PND 35 adolescent female mice): 4.62E-11 | N-arachidonoyl phenylalanine level, Mean (PND 35 adolescent female mice): 1.31E-12 | N-arachidonoyl serine level, Mean (PND 35 adolescent female mice): 6.28E-12 | N-arachidonoyl taurine level, Mean (PND 35 adolescent female mice): 5.99E-11 | N-arachidonoyl tryptophan level, Mean (PND 35 adolescent female mice): BDL | N-arachidonoyl tyrosine level, Mean (PND 35 adolescent female mice): 7.9E-13 | N-docosahexaenoyl GABA level, Mean (PND 35 adolescent female mice): 2.9E-12 | N-docosahexaenoyl alanine level, Mean (PND 35 adolescent female mice): 4.07E-12 | N-docosahexaenoyl ethanolamine level, Mean (PND 35 adolescent female mice): 4.03E-11 | N-docosahexaenoyl glycine level, Mean (PND 35 adolescent female mice): 1.76E-11 | N-docosahexaenoyl leucine level, Mean (PND 35 adolescent female mice): 8.15E-13 | N-docosahexaenoyl phenylalanine level, Mean (PND 35 adolescent female mice): 1.14E-12 | N-docosahexaenoyl proline level, Mean (PND 35 adolescent female mice): BDL | N-docosahexaenoyl serine level, Mean (PND 35 adolescent female mice): 2.59E-11 | N-docosahexaenoyl tyrosine level, Mean (PND 35 adolescent female mice): 7.13E-13 | N-docosahexaenoyl valine level, Mean (PND 35 adolescent female mice): 2E-13 | N-linoleoyl GABA level, Mean (PND 35 adolescent female mice): 9.8E-13 | N-linoleoyl alanine level, Mean (PND 35 adolescent female mice): 1.66E-12 | N-linoleoyl ethanolamine level, Mean (PND 35 adolescent female mice): 5.07E-11 | N-linoleoyl glycine level, Mean (PND 35 adolescent female mice): 4.36E-12 | N-linoleoyl leucine level, Mean (PND 35 adolescent female mice): 3.45E-13 | N-linoleoyl methionine level, Mean (PND 35 adolescent female mice): BDL | N-linoleoyl proline level, Mean (PND 35 adolescent female mice): BDL | N-linoleoyl serine level, Mean (PND 35 adolescent female mice): 5.67E-11 | N-linoleoyl tryptophan level, Mean (PND 35 adolescent female mice): BDL | N-linoleoyl tyrosine level, Mean (PND 35 adolescent female mice): BDL | N-nervonoyl valine level, Mean (PND 35 adolescent female mice): BDL | N-oleoyl GABA level, Mean (PND 35 adolescent female mice): 5.58E-12 | N-oleoyl alanine level, Mean (PND 35 adolescent female mice): 7.79E-12 | N-oleoyl dopamine level, Mean (PND 35 adolescent female mice): BDL | N-oleoyl ethanolamine level, Mean (PND 35 adolescent female mice): 1.71E-10 | N-oleoyl glycine level, Mean (PND 35 adolescent female mice): 2.36E-11 | N-oleoyl leucine level, Mean (PND 35 adolescent female mice): 2.09E-12 | N-oleoyl methionine level, Mean (PND 35 adolescent female mice): 1.17E-12 | N-oleoyl phenylalanine level, Mean (PND 35 adolescent female mice): 1.2E-12 | N-oleoyl serine level, Mean (PND 35 adolescent female mice): 3.24E-10 | N-oleoyl tryptophan level, Mean (PND 35 adolescent female mice): 1.87E-13 | N-oleoyl tyrosine level, Mean (PND 35 adolescent female mice): 4.87E-13 | N-oleoyl valine level, Mean (PND 35 adolescent female mice): 9.01E-13 | N-palmitoyl GABA level, Mean (PND 35 adolescent female mice): 1.41E-11 | N-palmitoyl alanine level, Mean (PND 35 adolescent female mice): 1.21E-11 | N-palmitoyl ethanolamine level, Mean (PND 35 adolescent female mice): 8.69E-11 | N-palmitoyl glycine level, Mean (PND 35 adolescent female mice): 4.99E-11 | N-palmitoyl leucine level, Mean (PND 35 adolescent female mice): 4.1E-12 | N-palmitoyl methionine level, Mean (PND 35 adolescent female mice): 1.84E-12 | N-palmitoyl phenylalanine level, Mean (PND 35 adolescent female mice): 2.75E-12 | N-palmitoyl proline level, Mean (PND 35 adolescent female mice): 1.05E-12 | N-palmitoyl serine level, Mean (PND 35 adolescent female mice): 1.05E-10 | N-palmitoyl tryptophan level, Mean (PND 35 adolescent female mice): 4.31E-13 | N-palmitoyl tyrosine level, Mean (PND 35 adolescent female mice): 1.31E-12 | N-palmitoyl valine level, Mean (PND 35 adolescent female mice): 2.65E-12 | N-stearoyl GABA level, Mean (PND 35 adolescent female mice): 1.05E-11 | N-stearoyl alanine level, Mean (PND 35 adolescent female mice): 1.24E-11 | N-stearoyl ethanolamine level, Mean (PND 35 adolescent female mice): 1.97E-11 | N-stearoyl glycine level, Mean (PND 35 adolescent female mice): 2.74E-11 | N-stearoyl leucine level, Mean (PND 35 adolescent female mice): 1.66E-12 | N-stearoyl methionine level, Mean (PND 35 adolescent female mice): 1.9E-12 | N-stearoyl phenylalanine level, Mean (PND 35 adolescent female mice): 2.22E-12 | N-stearoyl proline level, Mean (PND 35 adolescent female mice): 5.08E-13 | N-stearoyl serine level, Mean (PND 35 adolescent female mice): 3.19E-11 | N-stearoyl tryptophan level, Mean (PND 35 adolescent female mice): 1.26E-12 | N-stearoyl tyrosine level, Mean (PND 35 adolescent female mice): 1.15E-13 | Oleic acid level, Mean (PND 35 adolescent female mice): 1.67E-09 | PGE2 level, Mean (PND 35 adolescent female mice): 6.31E-10 | PhosphoLEA level, Mean (PND 35 adolescent female mice): 2.93E-11
